Source: US7074789B2, “Kinase inhibitors” (Amgen Inc., priority 1999, dated 2006)
pIC50: −log10 of the molar value.

What was measured:
Assay type in all cases: biochemical
[1] = target: T1, Zap-70 (Homo sapiens, UniProt P43403); test: Kinase inhibition assay (33P transfer), Zap-70; settings: Table 3, class symbols; read-out: Zap-1
T1 construct: Kinases are expressed as either kinase domains or full length constructs; made in house
T1 sequence (P43403 1-619): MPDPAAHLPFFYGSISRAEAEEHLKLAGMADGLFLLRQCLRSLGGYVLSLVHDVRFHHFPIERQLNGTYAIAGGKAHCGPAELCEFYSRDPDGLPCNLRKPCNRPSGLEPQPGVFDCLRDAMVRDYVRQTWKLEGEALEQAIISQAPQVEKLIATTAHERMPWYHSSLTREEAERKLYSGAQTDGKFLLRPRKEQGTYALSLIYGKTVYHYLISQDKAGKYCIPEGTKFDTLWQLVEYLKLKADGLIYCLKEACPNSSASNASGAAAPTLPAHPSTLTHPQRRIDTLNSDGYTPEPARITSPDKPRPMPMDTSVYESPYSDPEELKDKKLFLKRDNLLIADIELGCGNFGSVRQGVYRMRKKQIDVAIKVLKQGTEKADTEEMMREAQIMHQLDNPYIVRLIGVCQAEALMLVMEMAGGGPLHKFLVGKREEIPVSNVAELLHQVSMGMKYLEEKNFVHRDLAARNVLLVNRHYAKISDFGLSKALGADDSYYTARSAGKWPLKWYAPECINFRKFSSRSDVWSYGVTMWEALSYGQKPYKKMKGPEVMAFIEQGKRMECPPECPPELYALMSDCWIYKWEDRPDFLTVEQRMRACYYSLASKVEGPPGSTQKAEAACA
In short: (§1)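 Recombinant kinase-domain or full-length fusion proteins (GST or His tag) served as enzyme. Substrate poly(Glu,Tyr) 4:1 or poly(Arg,Ser) 3:1 was bound to the plate; transferred 33P was read by liquid scintillation following acid washing.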

[2] = target: T2, EGFR (Homo sapiens, UniProt P00533); test: Kinase inhibition assay (33P transfer), EGFR; settings: Table 2, class symbols A-E; read-out: EGFR-1
T2 construct: Kinases are expressed as either kinase domains or full length constructs; made in house
In short: (§2)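 Recombinant kinase domains or full-length GST- or His-tagged constructs, from E. coli or baculovirus/High Five cells, sometimes with regulatory polypeptides. Transfer of 33P from ATP to plate-bound poly(Glu,Tyr) 4:1 or poly(Arg,Ser) 3:1 counted by liquid scintillation after phosphoric acid wash; IC50 is the concentration halving incorporation.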

[3] = target: T3, IGFR-1 (Homo sapiens, UniProt P08069); test: Kinase inhibition assay (33P transfer), IGFR-1; settings: Table 2, class symbols A-E
T3 construct: Kinases are expressed as either kinase domains or full length constructs; made in house

[4] = target: T4, AKT (Homo sapiens, UniProt Q9Y243); test: Kinase inhibition assay (33P transfer), AKT; settings: Table 2, class symbols A-E; read-out: AKT3-1
T4 construct: Kinases are expressed as either kinase domains or full length constructs; made in house
In short: as §1

[5] = target: T5, c-Met (Homo sapiens, UniProt P08581); test: Kinase inhibition assay (33P transfer), c-Met; settings: Table 2, class symbols A-E; read-out: Met-1
T5 construct: Kinases are expressed as either kinase domains or full length constructs; made in house
In short: as §2

[6] = target: T6, ErbB2 (Homo sapiens, UniProt P04626); test: Kinase inhibition assay (33P transfer), ErbB2; settings: read-out: ErbB2-2
T6 construct: Kinases are expressed as either kinase domains or full length constructs; made in house
In short: as §2

[7] = target: T7, Itk (Homo sapiens, UniProt Q08881); test: Kinase inhibition assay (33P transfer), Itk; settings: Table 3, class symbols; read-out: Itk-1
T7 construct: Kinases are expressed as either kinase domains or full length constructs; made in house
T7 sequence (Q08881 1-620): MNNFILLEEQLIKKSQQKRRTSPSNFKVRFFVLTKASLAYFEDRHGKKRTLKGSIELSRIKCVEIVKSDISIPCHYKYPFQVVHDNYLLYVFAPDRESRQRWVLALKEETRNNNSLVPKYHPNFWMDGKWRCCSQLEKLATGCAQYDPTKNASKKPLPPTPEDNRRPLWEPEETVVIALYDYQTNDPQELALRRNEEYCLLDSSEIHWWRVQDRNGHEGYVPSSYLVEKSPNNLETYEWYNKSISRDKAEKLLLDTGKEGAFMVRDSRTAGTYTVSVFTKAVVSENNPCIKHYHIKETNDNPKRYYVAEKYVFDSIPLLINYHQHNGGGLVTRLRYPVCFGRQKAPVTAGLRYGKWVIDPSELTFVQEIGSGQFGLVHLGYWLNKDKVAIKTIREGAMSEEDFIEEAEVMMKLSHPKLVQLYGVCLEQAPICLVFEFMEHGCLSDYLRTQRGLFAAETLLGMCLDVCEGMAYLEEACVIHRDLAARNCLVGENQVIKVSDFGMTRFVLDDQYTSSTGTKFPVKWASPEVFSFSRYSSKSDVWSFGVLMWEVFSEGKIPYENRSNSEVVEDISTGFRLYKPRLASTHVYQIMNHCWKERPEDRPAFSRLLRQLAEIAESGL
In short: as §2

[8] = target: T8, Lck (Homo sapiens, UniProt P06239); test: Kinase inhibition assay (33P transfer), Lck; settings: Table 3, class symbols; read-out: Lck-1
T8 construct: Kinases are expressed as either kinase domains or full length constructs; made in house
In short: as §1

[9] = target: T9, PDGFRB (Homo sapiens, UniProt P09619); test: Kinase inhibition assay (33P transfer), PDGFRB; settings: read-out: PDGFRB-1
T9 construct: Kinases are expressed as either kinase domains or full length constructs; made in house

[10] = target: T10, Kdr (Homo sapiens, UniProt P35968); test: Kinase inhibition assay (33P transfer), Kdr; settings: Table 3, class symbols; read-out: KDR-1
T10 construct: Kinases are expressed as either kinase domains or full length constructs; made in house
In short: as §1

T6 sequence (P04626 23-1255, species assumed): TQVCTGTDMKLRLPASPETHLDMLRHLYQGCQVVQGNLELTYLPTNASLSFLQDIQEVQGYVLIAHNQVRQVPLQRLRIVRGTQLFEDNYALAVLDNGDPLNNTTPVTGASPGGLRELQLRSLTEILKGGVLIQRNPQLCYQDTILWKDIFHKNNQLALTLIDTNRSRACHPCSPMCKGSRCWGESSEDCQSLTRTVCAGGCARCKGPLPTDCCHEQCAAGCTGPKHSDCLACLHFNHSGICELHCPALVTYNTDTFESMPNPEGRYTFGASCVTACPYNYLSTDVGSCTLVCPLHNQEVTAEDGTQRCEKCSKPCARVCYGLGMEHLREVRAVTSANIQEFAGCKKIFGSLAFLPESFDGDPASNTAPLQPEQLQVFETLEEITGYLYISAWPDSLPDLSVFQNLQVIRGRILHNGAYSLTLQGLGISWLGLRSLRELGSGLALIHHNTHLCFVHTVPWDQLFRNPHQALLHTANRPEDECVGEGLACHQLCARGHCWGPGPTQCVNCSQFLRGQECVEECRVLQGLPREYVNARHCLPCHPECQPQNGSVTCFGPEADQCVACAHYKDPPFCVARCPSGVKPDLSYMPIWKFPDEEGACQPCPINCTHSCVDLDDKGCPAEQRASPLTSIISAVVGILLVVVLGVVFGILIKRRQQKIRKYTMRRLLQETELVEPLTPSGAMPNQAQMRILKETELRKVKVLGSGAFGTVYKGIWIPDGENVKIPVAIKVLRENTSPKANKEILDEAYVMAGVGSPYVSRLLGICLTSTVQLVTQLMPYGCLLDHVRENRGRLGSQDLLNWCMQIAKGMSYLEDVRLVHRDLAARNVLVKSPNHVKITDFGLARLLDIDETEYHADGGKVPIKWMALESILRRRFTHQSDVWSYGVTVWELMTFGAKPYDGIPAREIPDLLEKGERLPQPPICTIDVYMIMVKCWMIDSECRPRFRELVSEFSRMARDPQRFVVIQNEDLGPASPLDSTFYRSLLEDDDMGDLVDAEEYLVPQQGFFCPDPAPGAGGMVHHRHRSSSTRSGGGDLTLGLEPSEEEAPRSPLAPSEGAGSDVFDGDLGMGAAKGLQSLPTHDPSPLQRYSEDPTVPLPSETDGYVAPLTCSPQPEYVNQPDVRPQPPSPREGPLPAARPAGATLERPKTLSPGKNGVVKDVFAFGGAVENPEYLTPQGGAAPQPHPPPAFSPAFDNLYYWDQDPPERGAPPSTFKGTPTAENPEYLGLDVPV
T4 sequence (Q9Y243 whole entry, the tested form may be a part): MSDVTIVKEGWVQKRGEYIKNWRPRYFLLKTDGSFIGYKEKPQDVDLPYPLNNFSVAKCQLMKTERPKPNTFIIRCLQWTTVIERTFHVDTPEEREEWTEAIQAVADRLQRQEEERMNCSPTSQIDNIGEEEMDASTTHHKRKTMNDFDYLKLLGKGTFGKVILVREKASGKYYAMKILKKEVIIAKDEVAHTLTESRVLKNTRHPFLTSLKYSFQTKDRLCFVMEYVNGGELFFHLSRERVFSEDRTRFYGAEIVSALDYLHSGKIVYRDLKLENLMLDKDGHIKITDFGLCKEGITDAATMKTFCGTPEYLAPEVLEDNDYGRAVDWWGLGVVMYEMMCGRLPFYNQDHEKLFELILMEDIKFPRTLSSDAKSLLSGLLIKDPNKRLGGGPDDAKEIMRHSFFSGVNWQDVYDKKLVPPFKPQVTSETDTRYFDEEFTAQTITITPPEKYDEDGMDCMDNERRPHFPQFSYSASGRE
T8 sequence (P06239 whole entry, species assumed, the tested form may be a part): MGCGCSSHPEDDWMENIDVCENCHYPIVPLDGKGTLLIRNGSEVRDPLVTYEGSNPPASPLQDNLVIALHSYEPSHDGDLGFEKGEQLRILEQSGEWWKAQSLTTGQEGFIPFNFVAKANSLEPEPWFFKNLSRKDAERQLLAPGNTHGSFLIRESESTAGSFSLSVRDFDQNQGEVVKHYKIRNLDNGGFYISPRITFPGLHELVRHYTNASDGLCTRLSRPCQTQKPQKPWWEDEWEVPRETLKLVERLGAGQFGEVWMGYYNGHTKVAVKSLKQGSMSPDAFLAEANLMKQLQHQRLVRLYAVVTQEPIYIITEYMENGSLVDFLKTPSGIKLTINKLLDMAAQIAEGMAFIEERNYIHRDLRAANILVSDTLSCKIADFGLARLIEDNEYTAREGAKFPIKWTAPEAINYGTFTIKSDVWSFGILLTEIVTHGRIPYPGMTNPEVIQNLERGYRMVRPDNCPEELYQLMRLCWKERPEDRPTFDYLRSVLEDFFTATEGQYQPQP
T10 sequence (P35968 20-1356, species assumed): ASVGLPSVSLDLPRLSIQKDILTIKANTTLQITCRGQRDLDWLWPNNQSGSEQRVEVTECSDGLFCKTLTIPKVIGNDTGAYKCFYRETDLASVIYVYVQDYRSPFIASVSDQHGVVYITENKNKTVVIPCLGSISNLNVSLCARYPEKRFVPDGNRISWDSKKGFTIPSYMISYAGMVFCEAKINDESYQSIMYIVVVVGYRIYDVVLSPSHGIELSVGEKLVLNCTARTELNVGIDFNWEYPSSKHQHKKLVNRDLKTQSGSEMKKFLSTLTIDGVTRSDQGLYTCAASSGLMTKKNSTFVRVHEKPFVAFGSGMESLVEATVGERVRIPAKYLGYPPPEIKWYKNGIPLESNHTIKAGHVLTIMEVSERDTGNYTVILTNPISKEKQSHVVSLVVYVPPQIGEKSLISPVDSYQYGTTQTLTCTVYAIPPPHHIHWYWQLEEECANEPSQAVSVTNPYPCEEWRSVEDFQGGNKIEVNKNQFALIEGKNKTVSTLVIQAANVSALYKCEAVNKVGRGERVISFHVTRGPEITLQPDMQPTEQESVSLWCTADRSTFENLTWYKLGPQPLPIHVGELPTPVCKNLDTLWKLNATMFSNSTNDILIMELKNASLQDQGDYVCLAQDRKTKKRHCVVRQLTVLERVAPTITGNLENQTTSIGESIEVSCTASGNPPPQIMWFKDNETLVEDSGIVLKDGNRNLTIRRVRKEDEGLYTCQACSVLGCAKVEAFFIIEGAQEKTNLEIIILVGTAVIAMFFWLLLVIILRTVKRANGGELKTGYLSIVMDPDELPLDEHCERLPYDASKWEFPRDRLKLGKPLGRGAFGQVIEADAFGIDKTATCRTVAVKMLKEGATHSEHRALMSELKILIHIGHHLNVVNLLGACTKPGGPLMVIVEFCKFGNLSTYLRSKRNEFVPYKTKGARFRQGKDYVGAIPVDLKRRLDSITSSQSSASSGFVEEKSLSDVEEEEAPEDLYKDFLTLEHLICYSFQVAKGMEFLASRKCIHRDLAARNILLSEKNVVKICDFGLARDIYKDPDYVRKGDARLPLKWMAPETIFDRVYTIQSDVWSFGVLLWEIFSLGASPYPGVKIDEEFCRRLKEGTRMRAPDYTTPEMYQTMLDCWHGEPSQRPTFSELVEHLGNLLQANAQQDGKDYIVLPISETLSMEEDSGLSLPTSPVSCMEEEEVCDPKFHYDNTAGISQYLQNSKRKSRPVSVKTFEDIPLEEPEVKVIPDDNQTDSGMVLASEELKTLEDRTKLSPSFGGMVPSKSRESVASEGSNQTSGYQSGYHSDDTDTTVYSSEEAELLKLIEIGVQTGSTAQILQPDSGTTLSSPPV
T3 sequence (P08069 31-1367): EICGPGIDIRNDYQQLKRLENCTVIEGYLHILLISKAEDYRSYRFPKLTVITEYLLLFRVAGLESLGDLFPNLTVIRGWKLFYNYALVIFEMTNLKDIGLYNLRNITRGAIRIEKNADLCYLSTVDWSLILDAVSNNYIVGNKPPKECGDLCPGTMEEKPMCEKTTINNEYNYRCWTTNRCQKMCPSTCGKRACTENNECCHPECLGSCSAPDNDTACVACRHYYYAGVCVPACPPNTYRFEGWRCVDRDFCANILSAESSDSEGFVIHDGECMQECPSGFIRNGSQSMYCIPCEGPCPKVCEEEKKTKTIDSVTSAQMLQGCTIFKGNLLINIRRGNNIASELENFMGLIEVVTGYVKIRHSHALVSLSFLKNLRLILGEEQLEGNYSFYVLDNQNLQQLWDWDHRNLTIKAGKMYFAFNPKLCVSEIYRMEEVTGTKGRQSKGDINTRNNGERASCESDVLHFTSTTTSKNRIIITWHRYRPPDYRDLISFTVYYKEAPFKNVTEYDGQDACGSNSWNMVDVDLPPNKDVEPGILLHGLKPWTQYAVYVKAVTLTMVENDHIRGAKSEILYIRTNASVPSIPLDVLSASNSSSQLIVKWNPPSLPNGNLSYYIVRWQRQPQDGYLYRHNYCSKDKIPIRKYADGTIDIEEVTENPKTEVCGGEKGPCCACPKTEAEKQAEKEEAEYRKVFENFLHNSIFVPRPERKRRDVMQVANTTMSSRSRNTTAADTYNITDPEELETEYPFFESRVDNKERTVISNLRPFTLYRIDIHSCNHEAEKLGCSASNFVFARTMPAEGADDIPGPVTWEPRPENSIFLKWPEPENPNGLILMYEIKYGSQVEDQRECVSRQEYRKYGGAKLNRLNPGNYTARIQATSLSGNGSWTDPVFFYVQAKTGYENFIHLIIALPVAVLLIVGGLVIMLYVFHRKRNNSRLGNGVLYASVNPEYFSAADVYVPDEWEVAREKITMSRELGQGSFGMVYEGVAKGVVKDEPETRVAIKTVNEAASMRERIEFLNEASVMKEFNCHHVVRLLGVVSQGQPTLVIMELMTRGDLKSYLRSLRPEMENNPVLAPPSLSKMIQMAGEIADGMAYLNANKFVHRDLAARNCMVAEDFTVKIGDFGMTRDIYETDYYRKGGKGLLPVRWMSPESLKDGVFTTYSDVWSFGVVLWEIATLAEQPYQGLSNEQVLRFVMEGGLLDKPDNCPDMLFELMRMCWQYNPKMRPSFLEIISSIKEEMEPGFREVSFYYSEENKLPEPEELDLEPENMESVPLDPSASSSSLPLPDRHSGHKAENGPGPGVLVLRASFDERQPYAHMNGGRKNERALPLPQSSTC

| pIC50 [1] | pIC50 [2] | pIC50 [3] | pIC50 [4] | pIC50 [5] | pIC50 [6] | pIC50 [7] | pIC50 [8] | pIC50 [9] | pIC50 [10] | SMILES |
| --- | --- | --- | --- | --- | --- | --- | --- | --- | --- | --- |
| < 5.02 | > 6.08 | < 5.02 | < 5.02 | 5.13 to 5.30 | 5.13 to 5.30 | < 5.02 | < 5.02 | 5.13 to 5.30 | < 5.02 | CN(c1ccc(Cl)c(Cl)c1)c1ncnc(Nc2ccc3c(cnn3Cc3ccccc3)c2)n1 [Compound 903] |
| < 4.91 | < 4.91 | < 4.91 | < 4.91 | < 4.91 | < 4.91 | < 4.91 | < 4.91 | 5.19 to 5.97 | < 4.91 | COC(=O)c1ccc(-c2cc(Nc3ncnc(NCCCO)n3)[nH]n2)cc1 [Compound 818] |
| < 4.98 | < 4.98 | < 4.98 | < 4.98 | < 4.98 | 5.25 to 6.03 | < 4.98 | < 4.98 | 5.25 to 6.03 | 4.98 to 5.09 | COC(=O)c1ccc(-c2cc(Nc3ncnc(NCc4ccccc4OC)n3)[nH]n2)cc1 [Compound 815] |
| < 4.97 | 5.08 to 5.25 | < 4.97 | < 4.97 | < 4.97 | < 4.97 | < 4.97 | < 4.97 | 5.25 to 6.03 | < 4.97 | COC(=O)c1ccc(-c2cc(Nc3ncnc(NCCN4CCOCC4)n3)[nH]n2)cc1 [Compound 808] |
| < 4.91 | 5.18 to 5.96 | < 4.91 | < 4.91 | 4.91 to 5.02 | 4.91 to 5.02 | 5.02 to 5.18 | < 4.91 | 5.18 to 5.96 | 4.91 to 5.02 | COc1ccc(Nc2ncnc(N(C)CCc3ccccn3)n2)cc1OC [Compound 869] |
| < 5.00 | 5.28 to 6.06 | 5.28 to 6.06 | < 5.00 | 5.28 to 6.06 | 5.28 to 6.06 | 5.28 to 6.06 | 5.28 to 6.06 | < 5.00 | 5.28 to 6.06 | COC(=O)c1ccc(-c2cc(Nc3ncnc(NCCc4c[nH]c5ccccc45)n3)[nH]n2)cc1 [Compound 806] |
| < 4.94 | 5.05 to 5.21 | 5.05 to 5.21 | < 4.94 | < 4.94 | < 4.94 | < 4.94 | < 4.94 | 4.94 to 5.05 | < 4.94 | COc1ccc(Nc2ncnc(Nc3cc(Cl)cc(Cl)c3)n2)cc1OC [Compound 898] |
| 5.05 to 5.21 | 5.21 to 5.99 | 5.21 to 5.99 | < 4.94 | 5.05 to 5.21 | 5.05 to 5.21 | 5.21 to 5.99 | < 4.94 | 5.21 to 5.99 | 4.94 to 5.05 | COc1ccc(CNc2ncnc(Nc3cc(-c4ccco4)[nH]n3)n2)cc1OC [Compound 822] |
